Test results from patent US20210290676A1, “IMPROVING THE EFFICACY AND SAFETY OF ADOPTIVE CELLULAR THERAPIES” (University of Southern California, priority 2018, published 2021).

Tests used:
Format in all cases: cell-based, human
[1] = tested on: Pgp+ (DiOC2(3)-dye effluxing cells) and CD62L+ T cells; assay: DiOC2(3) dye efflux plus CD62L-APC staining, flow cytometry of inhibitor-treated T cells; conditions: treatment for 13 days, IL2 + CD3 and CD28 antibodies
Method: (§1) The use of P-glycoprotein (Pgp)-mediated efflux of DiOC2(3) to isolate stem like T cells for adoptive cellular therapy has been described in application no. […] In the following examples, DiOC2(3) staining was used to study the effect of different inhibitors on generation of stem like T cells.
(§2) DAY 0: Blood was obtained from unidentified donor. After RBC lysis, PBMC were collected using Ficoll-Hypaque separation. […] T cells were cultured in three different conditions: • 1. XVIVO 15 medium (Lonza) with IL2 50 IU/ml, CD3 antibody (30 ng/ml) and CD28 antibody (30 ng/ml). • 2. XVIVO 15 medium (Lonza) with CD3 antibody (30 ng/ml) and CD28 antibody (30 ng/ml). • 3. XVIVO 15 medium (Lonza) with IL2 50 IU/ml DAY 1: Cells were plated in a 6-well plate at a density of 1 million cells in 2 ml/of media (as described above) and treated with different inhibitors
(§3) The cell growth medium was changed in 6-well plates and fresh drugs were added at same concentration for one more week.
(§4) […] (DAY 11): Culture medium was changed and fresh drugs were added in 6-well plates.
(§5) Subsequently, cells were washed with RPMI medium and dye was effluxed at 37° C. for 90 min. Cells were washed with […], stained with CD62L-APC (5 μl/100 μl/sample) at 4° C. for 1 h, washed twice with PBS+1% FBS and analyzed on flow cytometer to check if these drugs treatment leads to increase in Pgp+/CD62L positive population.
(§6) Day 0: Blood was obtained from unidentified donor. After RBC lysis, PBMC were collected using Ficoll-Hypaque separation. 200 million T cells were isolated from PBMCs using CD3 microbeads. T cells were cultured overnight in XVIVO 15 medium (Lonza) with IL2 (50 IU/ml), 30 ng/ml of CD3 and CD28 antibodies
(§7) Day 1: Cells were plated in 24-well plates at a density of 0.3 million cells/ml in each well and treated with different drugs.
(§8) On day 7, culture medium was replaced with fresh medium with fresh drugs.
(§9) On day 13, culture medium was replaced with fresh medium and fresh drugs. Half of the cells were transferred to 6-well plates.
(§10) Day 14: An aliquot of cells with all the treatments listed above (for 13 days) was used to stain the cells with DiOC2(3) (60 ng/ml in RPMI medium) at 4° C. for 40 min, washed with RPMI medium, DiOC2(3) dye was effluxed at 37° C. for 90 min, washed with PBS+1% FBS, stained with CD62L-APC antibody. CD62L is a marker for resting T cells. (5 μl/100 μl/sample) at 4° C. for 1 h, washed twice with PBS+1% FBS and analyzed on flow cytometer to check if these drugs are affecting the dye-effluxing or Pgp+ (i.e., DiOC2(3)-dull) T-cell population.

[2] = tested on: CD8+CD45RA+CCR7+CD62L+ T cells; assay: Flow cytometry for CD8, CD45RA, CCR7 and CD62L on inhibitor-treated T cells; conditions: cells cultured for 14 days
Method: as §2
(§11) A second aliquot of the cells cultured for 13 days with all the treatments listed above (1-21) was washed with PBS+1% FBS, stained with CD8-PerCP, CD45RA-FITC, CCR7-PE and CD62L-APC ([…] for each of 4 antibodies) at 4° C. for 1 h, washed twice with […] and analyzed on flow cytometer to check if these drugs are enriching T stem cells showing surface expression of CD8+CD45RA+CCR7+CD62L+.
as §6, §7, §8, §9
(§12) A second aliquot of the cells cultured for 14 days with all the treatments listed above was washed with PBS+1% FBS, stained with CD8-PerCP, CD45RA-FITC, CCR7-PE and CD62L-APC (5 ul/100 ul/sample for each of 4 antibodies) at 4° C. for 1 h, washed twice with PBS+1% FBS and analyzed on flow cytometer to check if these drugs are enriching for T cells showing surface expression of CD8+CD45RA+CCR7+CD62L+.

[3] = tested on: CD45RA+CCR7+CD62L+ T cells; assay: Flow cytometry for CD45RA, CCR7 and CD62L on inhibitor-treated T cells (all T cells); conditions: cells cultured for 14 days
Method: as §2, §11, §6, §7, §8, §9, §12

[4] = tested on: Pgp+ (DiOC2(3)-dye effluxing) T cells; assay: DiOC2(3) dye efflux flow cytometry of inhibitor-treated T cells; conditions: treatment for 13 days, IL2 + CD3 and CD28 antibodies
Method: as §1, §2, §3, §4, §5, §6, §7, §8, §9, §10

| Structure (SMILES) | p5: double +ve pgp+ and CD62L-APC+ from Live cells ([1]; 500 nM) | p5: double +ve pgp+ and CD62L-APC+ from Live cells ([1]; 1 μM) | GATE P4 CD8(PerCP)+, CD45RA(FITC)+, CCR7 (PE)+, CD62L(APC) ([2]; 500 nM) | GATE P4 CD8(PerCP)+, CD45RA(FITC)+, CCR7 (PE)+, CD62L(APC) ([2]; 1 μM) | GATE P6 CD45RA(FITC)+, CCR7 (PE)+, CD62L(APC) ([3]; 500 nM) | GATE P6 CD45RA(FITC)+, CCR7 (PE)+, CD62L(APC) ([3]; 1 μM) | p2: pgp+ from Live cells ([4]; 500 nM) | p2: pgp+ from Live cells ([4]; 1 μM) | p5: double +ve pgp+ and CD62L-APC+ from Live cells ([1]; 100 nM) | GATE P4 CD8(PerCP)+, CD45RA(FITC)+, CCR7 (PE)+, CD62L(APC) ([2]; 100 nM) | GATE P6 CD45RA(FITC)+, CCR7 (PE)+, CD62L(APC) ([3]; 100 nM) | p2: pgp+ from Live cells ([4]; 100 nM) |
| --- | --- | --- | --- | --- | --- | --- | --- | --- | --- | --- | --- | --- |
| CCn1cc(-c2cccc(C(F)(F)F)c2)c2sc(C(=N)NC3CCS(=O)(=O)CC3)cc2c1=O [IBRD9] | 4.51 | 7.26 | 74.3% | 79.18% | 61.53% | 67.77% | 21.12 | 31.69 | – | – | – | – |
| Cc1ccc(Cl)c(Nc2ccccc2C(=O)O)c1Cl [MECLO] | 3.72 | – | 75.78% | – | 66.64% | – | 20.11 | – | 3.74 | 57.65% | 53.02% | 22.22 |
